The values below come from ChEMBL document CHEMBL1151687, “Search for alpha-helical propensity in the receptor-bound conformation of glucagon-like peptide-1” (Bioorg Med Chem, 2008).

Experiment [1] deals with T1, Glucagon-like peptide 1 receptor (Homo sapiens, UniProt P43220). The experiment can be described thus: Activation of human GLP1R expressed in HEK293 cells assessed as effect on cAMP responsive element promoter driven luciferase expression. In kind it is functional, cell-based.
The target in experiment [2] is T1, Glucagon-like peptide 1 receptor. The experiment can be described thus: Displacement of [125I]exendin(9-39) from human GLP1R expressed in HEK293 cells. Type of experiment: cell-based. (Displacement assays read how much labelled ligand stays bound in the presence of the test substance.)

Positions of bridges follow the written chain, without caps; N, C: chain ends. Residues, ends and D or L forms follow the SMILES beside them.

T1 sequence (P43220 whole entry): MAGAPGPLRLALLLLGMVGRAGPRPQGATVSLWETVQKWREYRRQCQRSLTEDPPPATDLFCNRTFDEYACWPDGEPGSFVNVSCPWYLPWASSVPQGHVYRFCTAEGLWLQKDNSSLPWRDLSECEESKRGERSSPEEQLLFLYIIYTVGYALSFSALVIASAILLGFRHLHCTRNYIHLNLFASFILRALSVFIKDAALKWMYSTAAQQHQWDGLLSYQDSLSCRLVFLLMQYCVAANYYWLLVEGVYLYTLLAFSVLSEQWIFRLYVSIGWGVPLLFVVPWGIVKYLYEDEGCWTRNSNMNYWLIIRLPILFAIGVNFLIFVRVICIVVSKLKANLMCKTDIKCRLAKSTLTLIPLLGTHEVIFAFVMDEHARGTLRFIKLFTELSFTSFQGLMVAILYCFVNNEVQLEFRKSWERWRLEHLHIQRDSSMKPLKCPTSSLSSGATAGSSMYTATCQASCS

What is called EC50 is the concentration giving half of the maximal effect. By IC50 is commonly meant the concentration at which inhibition is half-maximal. On to `CC[C@H](C)[C@H](NC(=O)[C@H](CCC(=O)O)NC(=O)[C@H](CCCCN)NC(=O)[C@H](C)NC(=O)[C@H](C)NC(=O)[C@H](CCC(N)=O)NC(=O)CNC(=O)[C@H](CCC(=O)O)NC(=O)[C@H](CC(C)C)NC(=O)[C@H](Cc1ccc(O)cc1)NC(=O)[C@H](CCC(N)=O)NC(=O)[C@H](CO)NC(=O)[C@@H](NC(=O)[C@H](CC(=O)O)NC(=O)[C@H](CCCCNC(C)=O)NC(=O)[C@@H](NC(=O)[C@H](Cc1ccccc1)NC(=O)[C@@H](NC(=O)CNC(=O)[C@H](CCC(=O)O)NC(=O)[C@H](C)NC(=O)[C@@H](N)Cc1cnc[nH]1)[C@@H](C)O)[C@@H](C)O)C(C)C)C(=O)N[C@@H](Cc1ccccc1)C(=O)N[C@@H](C)C(=O)N[C@@H](Cc1c[nH]c2ccccc12)C(=O)N[C@@H](CC(C)C)C(=O)N[C@H](C(=O)N[C@@H](CCCCN)C(=O)NCC(=O)N[C@@H](CCCN=C(N)N)C(N)=O)C(C)C` (H-HAEGTFTK(Ac)DVSQYLEGQAAKEIFAWLVKGR-NH2), for which, in experiment [1], the EC50 was determined as 16 nM. Moreover, in experiment [2], the IC50 is 230 nM.
Take `CC[C@H](C)[C@H](NC(=O)[C@H](CCC(=O)O)NC(=O)[C@H](CCCCN)NC(=O)[C@H](C)NC(=O)[C@H](C)NC(=O)[C@H](CCC(N)=O)NC(=O)CNC(=O)[C@H](CCC(=O)O)NC(=O)[C@H](CC(C)C)NC(=O)[C@H](Cc1ccc(O)cc1)NC(=O)[C@H](CO)NC(=O)[C@H](CO)NC(=O)[C@@H](NC(=O)[C@H](CC(=O)O)NC(=O)[C@H](CO)NC(=O)[C@@H](NC(=O)[C@H](Cc1ccccc1)NC(=O)[C@@H](NC(=O)CNC(=O)[C@H](CCC(=O)O)NC(=O)[C@H](C)NC(=O)[C@@H](N)Cc1cnc[nH]1)[C@@H](C)O)[C@@H](C)O)C(C)C)C(=O)N[C@@H](Cc1ccccc1)C(=O)N[C@@H](C)C(=O)N[C@@H](Cc1c[nH]c2ccccc12)C(=O)N[C@@H](CC(C)C)C(=O)N[C@H](C(=O)N[C@@H](CCCCN)C(=O)NCC(=O)N[C@@H](CCCN=C(N)N)C(=O)O)C(C)C` (H-HAEGTFTSDVSSYLEGQAAKEIFAWLVKGR-OH): in experiment [1] (hek293), the EC50 turned out to be 0.0036 nM. For the same compound, the IC50 in experiment [2] (hek293) amounted to 2.6 nM.
Take `CC[C@H](C)[C@H](NC(=O)[C@H](Cc1ccccc1)NC(=O)[C@H](CCC(=O)O)NC(=O)[C@H](CCCCN)NC(=O)[C@H](C)NC(=O)[C@H](C)NC(=O)[C@H](CCC(N)=O)NC(=O)[C@@H]1CCC(=O)NCCCC[C@H](NC(=O)[C@H](CO)NC(=O)[C@@H](NC(=O)[C@H](CC(=O)O)NC(=O)[C@H](CO)NC(=O)[C@@H](NC(=O)[C@H](Cc2ccccc2)NC(=O)[C@@H](NC(=O)CNC(=O)[C@H](CCC(=O)O)NC(=O)[C@H](C)NC(=O)[C@@H](N)Cc2cnc[nH]2)[C@@H](C)O)[C@@H](C)O)C(C)C)C(=O)N[C@@H](Cc2ccc(O)cc2)C(=O)N[C@@H](CC(C)C)C(=O)N[C@@H](CCC(=O)O)C(=O)N1)C(=O)N[C@@H](C)C(=O)N[C@@H](Cc1c[nH]c2ccccc12)C(=O)N[C@@H](CC(C)C)C(=O)N[C@H](C(=O)N[C@@H](CCCCN)C(=O)NCC(=O)N[C@@H](CCCN=C(N)N)C(N)=O)C(C)C` (H-HAEGTFTSDVSKYLEEQAAKEFIAWLVKGR-NH2; lactam 12-16): in experiment [1], the EC50 turned out to be 0.002 nM. Besides, the IC50 in experiment [2] came to 15.1 nM.
On the same counts, the results for `CC[C@H](C)[C@H](NC(=O)[C@H](CCC(=O)O)NC(=O)[C@H](CCCCN)NC(=O)[C@H](C)NC(=O)[C@H](CCC(N)=O)NC(=O)[C@H](CCC(N)=O)NC(=O)CNC(=O)[C@H](CCC(=O)O)NC(=O)[C@H](CCCCNC(C)=O)NC(=O)[C@H](Cc1ccc(O)cc1)NC(=O)[C@H](CO)NC(=O)[C@H](CO)NC(=O)[C@@H](NC(=O)[C@H](CC(=O)O)NC(=O)[C@H](CO)NC(=O)[C@@H](NC(=O)[C@H](Cc1ccccc1)NC(=O)[C@@H](NC(=O)CNC(=O)[C@H](CCC(=O)O)NC(=O)[C@H](C)NC(=O)[C@@H](N)Cc1cnc[nH]1)[C@@H](C)O)[C@@H](C)O)C(C)C)C(=O)N[C@@H](Cc1ccccc1)C(=O)N[C@@H](C)C(=O)N[C@@H](Cc1c[nH]c2ccccc12)C(=O)N[C@@H](CC(C)C)C(=O)N[C@H](C(=O)N[C@@H](CCCCN)C(=O)NCC(=O)N[C@@H](CCCNC(=N)N)C(N)=O)C(C)C` (H-HAEGTFTSDVSSYK(Ac)EGQQAKEIFAWLVKGR-NH2) are 0.1 nM and 1200 nM.
As for `CC[C@H](C)[C@H](NC(=O)[C@H](CCC(=O)O)NC(=O)[C@H](CCCCN)NC(=O)[C@H](CCC(N)=O)NC(=O)[C@H](C)NC(=O)[C@H](CCC(N)=O)NC(=O)CNC(=O)[C@H](CCCCNC(C)=O)NC(=O)[C@H](CC(C)C)NC(=O)[C@H](Cc1ccc(O)cc1)NC(=O)[C@H](CO)NC(=O)[C@H](CO)NC(=O)[C@@H](NC(=O)[C@H](CC(=O)O)NC(=O)[C@H](CO)NC(=O)[C@@H](NC(=O)[C@H](Cc1ccccc1)NC(=O)[C@@H](NC(=O)CNC(=O)[C@H](CCC(=O)O)NC(=O)[C@H](C)NC(=O)[C@@H](N)Cc1cnc[nH]1)[C@@H](C)O)[C@@H](C)O)C(C)C)C(=O)N[C@@H](Cc1ccccc1)C(=O)N[C@@H](C)C(=O)N[C@@H](Cc1c[nH]c2ccccc12)C(=O)N[C@@H](CC(C)C)C(=O)N[C@H](C(=O)N[C@@H](CCCCN)C(=O)NCC(=O)N[C@@H](CCCNC(=N)N)C(N)=O)C(C)C` (H-HAEGTFTSDVSSYLK(Ac)GQAQKEIFAWLVKGR-NH2), the EC50 in experiment [1] came to 0.12 nM. In addition, in experiment [2], the IC50 amounted to 1600 nM.
Regarding `CC[C@H](C)[C@H](NC(=O)[C@H](CCC(=O)O)NC(=O)[C@H](CCCCN)NC(=O)[C@H](C)NC(=O)[C@H](C)NC(=O)[C@H](CCC(N)=O)NC(=O)CNC(=O)[C@H](CCC(=O)O)NC(=O)[C@H](CC(C)C)NC(=O)[C@H](Cc1ccc(O)cc1)NC(=O)[C@H](CO)NC(=O)[C@H](CO)NC(=O)[C@@H](NC(=O)[C@H](CCC(N)=O)NC(=O)[C@H](CO)NC(=O)[C@@H](NC(=O)[C@H](Cc1ccccc1)NC(=O)[C@H](CCCCNC(C)=O)NC(=O)CNC(=O)[C@H](CCC(=O)O)NC(=O)[C@H](C)NC(=O)[C@@H](N)Cc1cnc[nH]1)[C@@H](C)O)C(C)C)C(=O)N[C@@H](Cc1ccccc1)C(=O)N[C@@H](C)C(=O)N[C@@H](Cc1c[nH]c2ccccc12)C(=O)N[C@@H](CC(C)C)C(=O)N[C@H](C(=O)N[C@@H](CCCCN)C(=O)NCC(=O)N[C@@H](CCCN=C(N)N)C(N)=O)C(C)C` (H-HAEGK(Ac)FTSQVSSYLEGQAAKEIFAWLVKGR-NH2), the EC50 in experiment [1] was 24 nM. Besides, the IC50 in experiment [2] was 440 nM.
Turning to `CC[C@H](C)[C@H](NC(=O)[C@H](Cc1ccccc1)NC(=O)[C@H](CCC(=O)O)NC(=O)[C@H](CCCCN)NC(=O)[C@H](C)NC(=O)[C@H](C)NC(=O)[C@H](CCC(N)=O)NC(=O)CNC(=O)[C@H](CCC(=O)O)NC(=O)[C@@H]1CSSC[C@H](NC(=O)[C@H](CC(=O)O)NC(=O)[C@H](CO)NC(=O)[C@@H](NC(=O)[C@H](Cc2ccccc2)NC(=O)[C@@H](NC(=O)CNC(=O)[C@H](CCC(=O)O)NC(=O)[C@H](C)NC(=O)[C@@H](N)Cc2cnc[nH]2)[C@@H](C)O)[C@@H](C)O)C(=O)N[C@@H](CO)C(=O)N[C@@H](CO)C(=O)N[C@@H](Cc2ccc(O)cc2)C(=O)N1)C(=O)N[C@@H](C)C(=O)N[C@@H](Cc1c[nH]c2ccccc12)C(=O)N[C@@H](CC(C)C)C(=O)N[C@H](C(=O)N[C@@H](CCCCN)C(=O)NCC(=O)N[C@@H](CCCNC(=N)N)C(N)=O)C(C)C` (H-HAEGTFTSDCSSYCEGQAAKEFIAWLVKGR-NH2; disulfide 10-14), in experiment [1] (hek293), the EC50 came to 19 nM.
As to `CC[C@H](C)[C@H](NC(=O)[C@H](Cc1ccccc1)NC(=O)[C@H](CCC(=O)O)NC(=O)[C@H](CCCCN)NC(=O)[C@H](C)NC(=O)[C@H](C)NC(=O)[C@H](CCC(N)=O)NC(=O)CNC(=O)[C@H](CCC(=O)O)NC(=O)[C@@H]1CCC(=O)NCCCC[C@H](NC(=O)[C@H](CC(=O)O)NC(=O)[C@H](CO)NC(=O)[C@@H](NC(=O)[C@H](Cc2ccccc2)NC(=O)[C@@H](NC(=O)CNC(=O)[C@H](CCC(=O)O)NC(=O)[C@H](C)NC(=O)[C@@H](N)Cc2cnc[nH]2)[C@@H](C)O)[C@@H](C)O)C(=O)N[C@@H](CO)C(=O)N[C@@H](CO)C(=O)N[C@@H](Cc2ccc(O)cc2)C(=O)N1)C(=O)N[C@H]1CCCCNC(=O)CC[C@@H](C(=O)NCC(=O)N[C@@H](CCCNC(=N)N)C(N)=O)NC(=O)[C@H](C(C)C)NC(=O)[C@H](CC(C)C)NC(=O)[C@H](Cc2c[nH]c3ccccc23)NC1=O` (H-HAEGTFTSDKSSYEEGQAAKEFIKWLVEGR-NH2; lactam 10-14, 24-28), the EC50 in experiment [1] turned out to be 0.0033 nM.
Regarding `CC[C@H](C)[C@H](NC(=O)[C@H](CCC(=O)O)NC(=O)[C@H](CCCCN)NC(=O)[C@H](C)NC(=O)[C@H](C)NC(=O)[C@H](CCC(N)=O)NC(=O)CNC(=O)[C@H](CCC(=O)O)NC(=O)[C@H](CC(C)C)NC(=O)[C@H](Cc1ccc(O)cc1)NC(=O)[C@H](CO)NC(=O)[C@H](CO)NC(=O)[C@@H](NC(=O)[C@H](CC(=O)O)NC(=O)[C@H](CO)NC(=O)[C@@H](NC(=O)[C@H](Cc1ccccc1)NC(=O)[C@@H](NC(=O)CNC(=O)[C@H](CCC(=O)O)NC(=O)[C@H](C)NC(=O)[C@@H](N)Cc1cnc[nH]1)[C@@H](C)O)[C@@H](C)O)C(C)C)C(=O)N[C@@H](Cc1ccccc1)C(=O)N[C@@H](CCCCNC(C)=O)C(=O)N[C@@H](Cc1c[nH]c2ccccc12)C(=O)N[C@@H](CC(C)C)C(=O)N[C@H](C(=O)N[C@@H](CCC(N)=O)C(=O)NCC(=O)N[C@@H](CCCN=C(N)N)C(N)=O)C(C)C` (H-HAEGTFTSDVSSYLEGQAAKEIFK(Ac)WLVQGR-NH2), the EC50 in experiment [1] (hek293) was found to be 0.0048 nM.
As to `CC[C@H](C)[C@H](NC(=O)[C@H](CCC(=O)O)NC(=O)[C@H](CCCCN)NC(=O)[C@H](C)NC(=O)[C@H](C)NC(=O)[C@H](CCC(N)=O)NC(=O)CNC(=O)[C@H](CCC(=O)O)NC(=O)[C@H](CS)NC(=O)[C@H](Cc1ccc(O)cc1)NC(=O)[C@H](CO)NC(=O)[C@H](CO)NC(=O)[C@H](CS)NC(=O)[C@H](CC(=O)O)NC(=O)[C@H](CO)NC(=O)[C@@H](NC(=O)[C@H](Cc1ccccc1)NC(=O)[C@@H](NC(=O)CNC(=O)[C@H](CCC(=O)O)NC(=O)[C@H](C)NC(=O)[C@@H](N)Cc1cnc[nH]1)[C@@H](C)O)[C@@H](C)O)C(=O)N[C@@H](Cc1ccccc1)C(=O)N[C@@H](C)C(=O)N[C@@H](Cc1c[nH]c2ccccc12)C(=O)N[C@@H](CC(C)C)C(=O)N[C@H](C(=O)N[C@@H](CCCCN)C(=O)NCC(=O)N[C@@H](CCCNC(=N)N)C(N)=O)C(C)C` (H-HAEGTFTSDCSSYCEGQAAKEIFAWLVKGR-NH2), in experiment [1], the EC50 stood at 1.4 nM.
